US12371464B2, “Polypeptides and uses thereof” (MEDIMMUNE LIMITED, priority 2020, dated 2025)
Numbered stars: 1 amine (or outer) side, 2 acyl side, 3 side chain; on linkers, the order of the positions; unused ones are H or OH. Bridge positions count the residues as written; N and C are the ends. Square brackets hold non-standard residues; d marks the D form. Side chains are listed from the residue outwards. Peptide text beside a SMILES is read from it. * marks the point of attachment. C18 diacid = O=C(O)CCCCCCCCCCCCCCCCC(=O)*; γGlu = O=C(O)[C@H](CCC(=O)[*:2])N[*:1]; Aib = CC(C)(N)C(=O)O

Experiment: Thioflavin T fibrillation assay
Type: physicochemical
Conditions: 1 mg/mL in 25 mM sodium acetate buffer pH 4.0, 37° C., 6 days, orbital shaking; >144 h = no increase
Method in brief: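 Peptides at 1 mg/mL in 25 mM sodium acetate pH 4.0 were mixed with ThT (0.25 mM stock) and held 6 days at 37 °C with intermittent orbital shaking at 500–750 rpm. Fluorescence (ex 444/em 480 nm) was read every 30 min, with buffer baseline correction and 5 replicates. Value: mean time to a detectable fluorescence increase.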

Row | SMILES | Time taken to detect increase in fluorescence intensity
1 | CC[C@H](C)[C@H](NC(=O)[C@@H]1CCCN1C(=O)CNC(=O)[C@H](Cc1ccccc1)NC(=O)[C@H](CC(N)=O)NC(=O)C(C)(C)NC(=O)[C@H](CO)NC(=O)[C@H](CO)NC(=O)[C@H](Cc1c[nH]cn1)NC(=O)[C@H](CCCNC(=N)N)NC(=O)[C@H](CC(C)C)NC(=O)[C@H](Cc1ccccc1)NC(=O)[C@H](CC(N)=O)NC(=O)[C@H](C)NC(=O)[C@H](CC(C)C)NC(=O)[C@H](CCCNC(=N)N)NC(=O)[C@H](CCC(N)=O)NC(=O)[C@@H](NC(=O)[C@H](C)NC(=O)[C@@H]1CSSC[C@H](NC(=O)[C@@H](N)CCCCNC(=O)CC[C@H](NC(=O)CCCCCCCCCCCCCCCCC(=O)O)C(=O)O)C(=O)N[C@@H](CC(N)=O)C(=O)N[C@@H]([C@@H](C)O)C(=O)N[C@@H](C)C(=O)N[C@@H]([C@@H](C)O)C(=O)N1)[C@@H](C)O)C(=O)N[C@@H](CC(C)C)C(=O)N1CCC[C@H]1C(=O)N1CCC[C@H]1C(=O)N[C@H](C(=O)N[C@@H](CCC(=O)O)C(=O)N[C@H](C(=O)NCC(=O)N[C@@H](CO)C(=O)N[C@@H](CC(N)=O)C(=O)N[C@H](C(=O)N[C@@H](Cc1ccc(O)cc1)C(N)=O)[C@@H](C)O)C(C)C)[C@@H](C)O [Peptide 44, K(γE-C18diacid)[CNTATC]ATQRLANFLRHSS(Aib)NFGPILPPTEVGSNTY-amide] (H-K([γGlu-C18 diacid])CNTATCATQRLANFLRHSS[Aib]NFGPILPPTEVGSNTY-NH2; disulfide 2-7; N-terminus assumed) | >144 h
2 | CC[C@H](C)[C@H](NC(=O)[C@@H]1CCCN1C(=O)CNC(=O)[C@H](Cc1ccccc1)NC(=O)[C@H](CC(N)=O)NC(=O)C(C)(C)NC(=O)[C@H](CO)NC(=O)[C@H](CO)NC(=O)[C@H](Cc1c[nH]cn1)NC(=O)[C@H](CCCNC(=N)N)NC(=O)[C@H](CC(C)C)NC(=O)[C@H](Cc1ccccc1)NC(=O)[C@H](CC(N)=O)NC(=O)[C@H](C)NC(=O)[C@H](CC(C)C)NC(=O)[C@H](CCCNC(=N)N)NC(=O)[C@H](CCC(N)=O)NC(=O)[C@@H](NC(=O)[C@H](C)NC(=O)[C@@H]1CSSC[C@H](NC(=O)[C@@H](N)CCCCNC(=O)CC[C@H](NC(=O)CCCCCCCCCCCCCCCCC(=O)O)C(=O)O)C(=O)N[C@@H](CC(N)=O)C(=O)N[C@@H]([C@@H](C)O)C(=O)N[C@@H](C)C(=O)N[C@@H]([C@@H](C)O)C(=O)N1)[C@@H](C)O)C(=O)N[C@@H](CC(C)C)C(=O)N1CCC[C@H]1C(=O)N1CCC[C@H]1C(=O)N[C@H](C(=O)N[C@@H](CC(N)=O)C(=O)N[C@H](C(=O)NCC(=O)N[C@@H](CO)C(=O)N[C@@H](CC(N)=O)C(=O)N[C@H](C(=O)N[C@@H](Cc1ccc(O)cc1)C(N)=O)[C@@H](C)O)C(C)C)[C@@H](C)O [Peptide 48, K(γE-C18diacid)[CNTATC]ATQRLANFLRHSS(Aib)NFGPILPPTNVGSNTY-amide] (H-K([γGlu-C18 diacid])CNTATCATQRLANFLRHSS[Aib]NFGPILPPTNVGSNTY-NH2; disulfide 2-7; N-terminus assumed) | >144 h
3 | CC[C@H](C)[C@H](NC(=O)[C@@H]1CCCN1C(=O)CNC(=O)[C@H](Cc1ccccc1)NC(=O)[C@H](CC(N)=O)NC(=O)C(C)(C)NC(=O)[C@H](CO)NC(=O)[C@H](CO)NC(=O)[C@H](Cc1c[nH]cn1)NC(=O)[C@H](CCCNC(=N)N)NC(=O)[C@H](CC(C)C)NC(=O)[C@H](Cc1ccccc1)NC(=O)[C@H](CC(N)=O)NC(=O)[C@H](C)NC(=O)[C@H](CC(C)C)NC(=O)[C@H](CCCNC(=N)N)NC(=O)[C@H](CCC(N)=O)NC(=O)[C@@H](NC(=O)[C@H](C)NC(=O)[C@@H]1CSSC[C@H](NC(=O)[C@H](CCCCN)NC(=O)[C@@H](N)CCCCNC(=O)CC[C@H](NC(=O)CC[C@H](NC(=O)CCCCCCCCCCCCCCCCC(=O)O)C(=O)O)C(=O)O)C(=O)N[C@@H](CC(N)=O)C(=O)N[C@@H]([C@@H](C)O)C(=O)N[C@@H](C)C(=O)N[C@@H]([C@@H](C)O)C(=O)N1)[C@@H](C)O)C(=O)N[C@@H](CC(C)C)C(=O)N1CCC[C@H]1C(=O)N1CCC[C@H]1C(=O)N[C@H](C(=O)N[C@@H](CC(N)=O)C(=O)N[C@H](C(=O)NCC(=O)N[C@@H](CO)C(=O)N[C@@H](CC(N)=O)C(=O)N[C@H](C(=O)N[C@@H](Cc1ccc(O)cc1)C(N)=O)[C@@H](C)O)C(C)C)[C@@H](C)O [Peptide 66, K(γE-γE-C18diacid)K[CNTATC]ATQRLANFLRHSS(Aib)NFGPILPPTNVGSNTY-amide] (H-K([γGlu-γGlu-C18 diacid])KCNTATCATQRLANFLRHSS[Aib]NFGPILPPTNVGSNTY-NH2; disulfide 3-8; N-terminus assumed) | >144 h
4 | CC[C@H](C)[C@H](NC(=O)[C@@H]1CCCN1C(=O)CNC(=O)[C@H](Cc1ccccc1)NC(=O)[C@H](CC(N)=O)NC(=O)C(C)(C)NC(=O)[C@H](CO)NC(=O)[C@H](CO)NC(=O)[C@H](Cc1c[nH]cn1)NC(=O)[C@@H](NC(=O)[C@H](CC(C)C)NC(=O)[C@H](Cc1ccccc1)NC(=O)[C@H](CC(N)=O)NC(=O)[C@H](C)NC(=O)[C@H](CC(C)C)NC(=O)[C@H](CCCNC(=N)N)NC(=O)[C@H](CCC(N)=O)NC(=O)[C@@H](NC(=O)[C@H](C)NC(=O)[C@@H]1CSSC[C@H](NC(=O)[C@H](CCCCN)NC(=O)[C@@H](N)CCCCNC(=O)CC[C@H](NC(=O)CC[C@H](NC(=O)CCCCCCCCCCCCCCCCC(=O)O)C(=O)O)C(=O)O)C(=O)N[C@@H](CC(N)=O)C(=O)N[C@@H]([C@@H](C)O)C(=O)N[C@@H](C)C(=O)N[C@@H]([C@@H](C)O)C(=O)N1)[C@@H](C)O)C(C)C)C(=O)N[C@@H](CC(C)C)C(=O)N1CCC[C@H]1C(=O)N1CCC[C@H]1C(=O)N[C@H](C(=O)N[C@@H](CCCNC(=N)N)C(=O)N[C@H](C(=O)NCC(=O)N[C@@H](CO)C(=O)N[C@@H](CC(N)=O)C(=O)N[C@H](C(=O)N[C@@H](Cc1ccc(O)cc1)C(N)=O)[C@@H](C)O)C(C)C)[C@@H](C)O [Peptide 70, K(γE-γE-C18diacid)K[CNTATC]ATQRLANFLVHSS(Aib)NFGPILPPTRVGSNTY-amide] (H-K([γGlu-γGlu-C18 diacid])KCNTATCATQRLANFLVHSS[Aib]NFGPILPPTRVGSNTY-NH2; disulfide 3-8; N-terminus assumed) | >144 h
5 | CC[C@H](C)[C@H](NC(=O)[C@@H]1CCCN1C(=O)CNC(=O)[C@H](Cc1ccccc1)NC(=O)[C@H](CC(N)=O)NC(=O)C(C)(C)NC(=O)[C@H](CO)NC(=O)[C@H](CO)NC(=O)[C@H](Cc1c[nH]cn1)NC(=O)[C@@H](NC(=O)[C@H](CC(C)C)NC(=O)[C@H](Cc1ccccc1)NC(=O)[C@H](CC(N)=O)NC(=O)[C@H](C)NC(=O)[C@H](CC(C)C)NC(=O)[C@H](CCCNC(=N)N)NC(=O)[C@H](CCC(N)=O)NC(=O)[C@@H](NC(=O)[C@H](C)NC(=O)[C@@H]1CSSC[C@H](NC(=O)[C@H](CCCCN)NC(=O)[C@@H](N)CCCCNC(=O)CC[C@H](NC(=O)CCCCCCCCCCCCCCCCC(=O)O)C(=O)O)C(=O)N[C@@H](CC(N)=O)C(=O)N[C@@H]([C@@H](C)O)C(=O)N[C@@H](C)C(=O)N[C@@H]([C@@H](C)O)C(=O)N1)[C@@H](C)O)C(C)C)C(=O)N[C@@H](CC(C)C)C(=O)N1CCC[C@H]1C(=O)N1CCC[C@H]1C(=O)N[C@H](C(=O)NC(C)(C)C(=O)N[C@H](C(=O)NCC(=O)N[C@@H](CO)C(=O)N[C@@H](CC(N)=O)C(=O)N[C@H](C(=O)N[C@@H](Cc1ccc(O)cc1)C(N)=O)[C@@H](C)O)C(C)C)[C@@H](C)O [Peptide 80, K(γE-C18diacid)K[CNTATC]ATQRLANFLVHSS(Aib)NFGPILPPT(Aib)VGSNTY-amide] (H-K([γGlu-C18 diacid])KCNTATCATQRLANFLVHSS[Aib]NFGPILPPT[Aib]VGSNTY-NH2; disulfide 3-8; N-terminus assumed) | >144 h
6 | CC[C@H](C)[C@H](NC(=O)[C@@H]1CCCN1C(=O)CNC(=O)[C@H](Cc1ccccc1)NC(=O)[C@H](CC(N)=O)NC(=O)[C@H](CC(N)=O)NC(=O)[C@H](CO)NC(=O)[C@H](CO)NC(=O)[C@H](Cc1c[nH]cn1)NC(=O)[C@@H](NC(=O)[C@H](CC(C)C)NC(=O)[C@H](Cc1ccccc1)NC(=O)[C@H](CC(N)=O)NC(=O)[C@H](C)NC(=O)[C@H](CC(C)C)NC(=O)[C@H](CCCNC(=N)N)NC(=O)[C@H](CCC(N)=O)NC(=O)[C@@H](NC(=O)[C@H](C)NC(=O)[C@@H]1CSSC[C@H](NC(=O)[C@@H](N)CCCCNC(=O)CC[C@H](NC(=O)CCCCCCCCCCCCCCCCC(=O)O)C(=O)O)C(=O)N[C@@H](CC(N)=O)C(=O)N[C@@H]([C@@H](C)O)C(=O)N[C@@H](C)C(=O)N[C@@H]([C@@H](C)O)C(=O)N1)[C@@H](C)O)C(C)C)C(=O)N[C@H](CC(C)C)C(=O)N1CCC[C@H]1C(=O)N1CCC[C@H]1C(=O)N[C@H](C(=O)N[C@@H](CC(N)=O)C(=O)N[C@H](C(=O)NCC(=O)N[C@@H](CO)C(=O)N[C@@H](CC(N)=O)C(=O)N[C@H](C(=O)N[C@@H](Cc1ccc(O)cc1)C(N)=O)[C@@H](C)O)C(C)C)[C@@H](C)O [Peptide 103, K(γE-C18diacid)[CNTATC]ATQRLANFLVHSSNNFGPI(dL)PPTNVGSNTY-amide] (H-K([γGlu-C18 diacid])CNTATCATQRLANFLVHSSNNFGPI[dL]PPTNVGSNTY-NH2; disulfide 2-7; N-terminus assumed) | <5 h
